These results are taken from patent publication US5681604A, “Stain-inhibiting agent for dyes with affinity for protonatable nitrogen, compositions containing same and uses thereof” (priority 1993, dated 1997).

A short description of data set [1]: Stain-inhibiting activity (general statements).
Data set [2] in a line: Stain inhibition: 66 nylon yarn immersed in F, D & C Red 40 / citric acid staining solution. How it is done: 3. […] A second yarn sample, Sample 2B, was immersed in staining/stain-inhibitor solution, Solution B, also for one minute. Both samples were then dried for 24 hours.
2. […] Thus, Solution 3B was prepared by adding 100 ppm of the ECG to Solution 3A.

The test system of a further data set is mice. To be noted: oral, in mice; cited from earlier work.
Another data set is described as follows: Titration with NaOH. The format is physicochemical.
For data set [3] the following is noted: commercially-available tannic acid from natural sources; cited from earlier work.
Data set [4] is described as follows: Stain inhibition: 66 nylon skein (yarn) soaked in cherry KOOL-AID solution. To be noted: for AATCC Staining Scale Rating: 1 min soak, dried 24 h; for CIE L / CIE a / CIE b: Minolta Chromameter. How it is done: (§1) Each solution was prepared by mixing 1 gram of the KOOL-AID® powder with enough water to make 450 to 500 cm^3 of solution.
(§2) Solution 1A: prepared as set forth above, no sugar added.
(§3) Solution 1B: Solution 1A+50 parts per million (ppm) tannic acid (certified, Fisher Scientific Co.).
(§4) Solution 1C: Solution 1A+200 ppm tannic acid (same tannic acid as in Solution 1B, hereafter "TA").
(§5) After the solutions were prepared, four 1 in^2 (6.45 cm^2) samples (Carpet Samples 1A, 1B, 1C, and Control) were cut from twisted, heat-set 66 nylon carpet, mock-acid dyed, and four 1-gram samples of 66 nylon skein (Test Fabrics, Middlesex, N.J.) were obtained (Yarn Samples 1A, 1B, 1C, and Control). Carpet Samples 1A, 1B, and 1C were soaked in 50 ml. of Solutions 1A, 1B, and 1C, respectively, for 1 minute, and allowed to dry for 24 hours. The Carpet Control Sample was not exposed to any of the solutions. The same procedure was followed with Yarn Samples 1A, 1B, 1C, and Control. (The carpet and skeins had been scoured in 0.1% non-ionic detergent to remove surface grease and finish.)
(§6) All samples were rinsed thoroughly in distilled water, and allowed to dry.
(§7) The amount of staining on each sample was evaluated by comparison with the AATCC Staining Scale (AATCC Test Method, 175-1991), and by the CIE L, a, b values obtained from the Minolta Chromameter.

Data set [5] can be described thus: Stain inhibition: 66 nylon carpet soaked in cherry KOOL-AID solution. To be noted: for AATCC Staining Scale Rating: 1 min soak, dried 24 h; for CIE L / CIE a / CIE b: Minolta Chromameter. As for the experimental part:
as §1, §2, §3, §4, §5, §6, §7

The mark [6] stands for this setting: 50 ppm TA in cherry KOOL-AID solution.
Where [7] appears, read: 200 ppm TA in cherry KOOL-AID solution.

In the case of `Oc1cccc(O)c1` [resorcinol], in data set [1], the stain-inhibiting activity result is “do not appear to exhibit stain-inhibiting activity”.

As for `Oc1cccc(O)c1O` [pyrogallol], the stain-inhibiting activity result in data set [1] is “do not appear to exhibit stain-inhibiting activity”.

Compound `O=C(O[C@@H]1Cc2c(O)cc(O)cc2O[C@@H]1c1ccc(O)c(O)c1)c1cc(O)c(O)c(O)c1` [ECG, Epicatechin gallate] displayed an AATCC in data set [2] (100 ppm ECG in Red 40 staining solution pH 2.8, 1 min) of 7. Besides, in data set [2] (100 ppm ECG, Chromameter), the “CIE L” value worked out at 81, the CIE a is 4 and the CIE b worked out at 2.

With `O=C(OC[C@H]1O[C@@H](OC(=O)c2cc(O)c(O)c(OC(=O)c3cc(O)c(O)c(O)c3)c2)[C@H](OC(=O)c2cc(O)c(O)c(OC(=O)c3cc(O)c(O)c(O)c3)c2)[C@@H](OC(=O)c2cc(O)c(O)c(OC(=O)c3cc(O)c(O)c(O)c3)c2)[C@@H]1OC(=O)c1cc(O)c(O)c(OC(=O)c2cc(O)c(O)c(O)c2)c1)c1cc(O)c(O)c(OC(=O)c2cc(O)c(O)c(O)c2)c1` [TA, tannic acid], in the data set on mice, the LD50 was 6000 mg/kg. Besides, in the data set “Titration with NaOH”, the “inflection point pH when titrated with NaOH” value is listed as “about 4.5”. The water solubility entry in data set [3] is listed as “water soluble”. In addition, the “AATCC Staining Scale Rating” value in data set [4] (setting [6]) is reported as 7; in data set [4] (setting [7]), 9; in data set [5] (setting [6]), 6; in data set [5] (setting [7]), 10. Moreover, the “CIE L” value was 81 in data set [4] (50 ppm TA), 83 in data set [4] (200 ppm TA), 78 in data set [5] (50 ppm TA) and 83 in data set [5] (200 ppm TA). For the same compound, the CIE a in data set [4] (50 ppm TA) was 12; in data set [4] (200 ppm TA), 8; in data set [5] (50 ppm TA), 9; in data set [5] (200 ppm TA), 0.8. In addition, the CIE b is 4 in data set [4] (50 ppm TA), 4 in data set [4] (200 ppm TA), 3 in data set [5] (50 ppm TA) and 2 in data set [5] (200 ppm TA).
